Literature values, collected in patent US10611818B2, “MHC multimers in tuberculosis diagnostics, vaccine and therapeutics” (priority 2007, dated 2020).

System: T2 cells
Details: CD8 T-cell clones 8, 9, 10, 11 and 12

## GLQHWVPEL [BA4697-105, irrelevant peptide used to load T2 target cells]
  lysis of T2 cells pulsed with peptide: without killing
